Tested on: 598228-144-R-J1-PDC complex spheroid viability
Assay: Anticancer human tumor 598228-144-R-J1-PDC patient-derived serous endometrial adenocarcinoma cell line growth inhibition [GQUAD]
Settings: for IC50: curve of first compound; for viability, T/C: stronger effect = lower value
Summary of the method: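 Viability of tumor cells grown as complex spheroids with endothelial and stromal cells, exposed to drug combinations. Top concentration at or near clinical Cmax (else 10 microM), diluted in half-log increments.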

[1] = second compound 0.0316 µM, first compound 0.0316 µM
[2] = second compound 0.0316 µM, first compound 0.1 µM
[3] = second compound 0.0316 µM, first compound 0.316 µM
[4] = second compound 0.0316 µM, first compound 1 µM
[5] = second compound 0.0316 µM, first compound 3.16 µM
[6] = second compound 0.0316 µM, first compound 10 µM
[7] = second compound 0.1 µM, first compound 0.0316 µM
[8] = second compound 0.1 µM, first compound 0.1 µM
[9] = second compound 0.1 µM, first compound 0.316 µM
[10] = second compound 0.1 µM, first compound 1 µM
[11] = second compound 0.1 µM, first compound 3.16 µM
[12] = second compound 0.1 µM, first compound 10 µM
[13] = second compound 0.316 µM, first compound 0.0316 µM
[14] = second compound 0.316 µM, first compound 0.1 µM
[15] = second compound 0.316 µM, first compound 0.316 µM
[16] = second compound 0.316 µM, first compound 1 µM
[17] = second compound 0.316 µM, first compound 3.16 µM
[18] = second compound 0.316 µM, first compound 10 µM
[19] = second compound 1 µM, first compound 0.0316 µM
[20] = second compound 1 µM, first compound 0.1 µM
[21] = second compound 1 µM, first compound 0.316 µM
[22] = second compound 1 µM, first compound 1 µM
[23] = second compound 1 µM, first compound 3.16 µM
[24] = second compound 1 µM, first compound 10 µM
[25] = second compound 3.16 µM, first compound 0.0316 µM
[26] = second compound 3.16 µM, first compound 0.1 µM
[27] = second compound 3.16 µM, first compound 0.316 µM
[28] = second compound 3.16 µM, first compound 1 µM
[29] = second compound 3.16 µM, first compound 3.16 µM
[30] = second compound 3.16 µM, first compound 10 µM
[31] = second compound 10 µM, first compound 0.0316 µM
[32] = second compound 10 µM, first compound 0.1 µM
[33] = second compound 10 µM, first compound 0.316 µM
[34] = second compound 10 µM, first compound 1 µM
[35] = second compound 10 µM, first compound 3.16 µM
[36] = second compound 10 µM, first compound 10 µM
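Note: spheroids exposed to the agents for one week before reading.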
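Throughout, for viability, T/C: percent of vehicle DMSO control viability so 100% = untreated growth.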

C=CC(=O)N1CCN(c2nc(=O)n(-c3c(C)ccnc3C(C)C)c3nc(-c4c(O)cccc4F)c(F)cc23)C(C)C1 (stereo unspecified) + Cc1[nH]c2ccc(F)cc2c1-c1nc2c3cccnc3c3ncccc3c2[nH]1
IC50 (second compound 0.0316 µM): > 10 µM
IC50 (second compound 0.1 µM): > 10 µM
IC50 (second compound 0.316 µM): > 10 µM
IC50 (second compound 1 µM): > 10 µM
IC50 (second compound 3.16 µM): < 0.0316 µM
IC50 (second compound 10 µM): > 10 µM
viability, T/C [1]: 119%
viability, T/C [2]: 95%
viability, T/C [3]: 105%
viability, T/C [4]: 132%
viability, T/C [5]: 136%
viability, T/C [6]: 123%
viability, T/C [7]: 88.4%
viability, T/C [8]: 110%
viability, T/C [9]: 102%
viability, T/C [10]: 129%
viability, T/C [11]: 136%
viability, T/C [12]: 151%
viability, T/C [13]: 75.9%
viability, T/C [14]: 94.8%
viability, T/C [15]: 99.5%
viability, T/C [16]: 108%
viability, T/C [17]: 159%
viability, T/C [18]: 108%
viability, T/C [19]: 58.6%
viability, T/C [20]: 62.9%
viability, T/C [21]: 63.7%
viability, T/C [22]: 75.6%
viability, T/C [23]: 89.3%
viability, T/C [24]: 101%
viability, T/C [25]: 36.1%
viability, T/C [26]: 37.2%
viability, T/C [27]: 55.9%
viability, T/C [28]: 57.7%
viability, T/C [29]: 59.5%
viability, T/C [30]: 70%
viability, T/C [31]: 57.1%
viability, T/C [32]: 75.6%
viability, T/C [33]: 63.8%
viability, T/C [34]: 69.1%
viability, T/C [35]: 80.9%
viability, T/C [36]: 103%

CC(C)n1c(=O)n(C)c2cnc3cc(F)c(-c4ccc(OCCCN5CCCCC5)nc4)cc3c21 + Cc1[nH]c2ccc(F)cc2c1-c1nc2c3cccnc3c3ncccc3c2[nH]1
IC50 (second compound 0.0316 µM): > 10 µM
IC50 (second compound 0.1 µM): > 10 µM
IC50 (second compound 0.316 µM): > 10 µM
IC50 (second compound 1 µM): 5.12 µM
IC50 (second compound 3.16 µM): < 0.0316 µM
IC50 (second compound 10 µM): > 10 µM
viability, T/C [1]: 116%
viability, T/C [2]: 100%
viability, T/C [3]: 117%
viability, T/C [4]: 121%
viability, T/C [5]: 106%
viability, T/C [6]: 65%
viability, T/C [7]: 107%
viability, T/C [8]: 108%
viability, T/C [9]: 95.4%
viability, T/C [10]: 94.4%
viability, T/C [11]: 91.7%
viability, T/C [12]: 77%
viability, T/C [13]: 90.8%
viability, T/C [14]: 97.2%
viability, T/C [15]: 93.9%
viability, T/C [16]: 87.4%
viability, T/C [17]: 101%
viability, T/C [18]: 62.2%
viability, T/C [19]: 72.6%
viability, T/C [20]: 60.6%
viability, T/C [21]: 59.2%
viability, T/C [22]: 60.6%
viability, T/C [23]: 59.2%
viability, T/C [24]: 39.5%
viability, T/C [25]: 45.2%
viability, T/C [26]: 47.4%
viability, T/C [27]: 40.8%
viability, T/C [28]: 39.3%
viability, T/C [29]: 29.5%
viability, T/C [30]: 27.3%
viability, T/C [31]: 66%
viability, T/C [32]: 57.9%
viability, T/C [33]: 52.9%
viability, T/C [34]: 54.1%
viability, T/C [35]: 55.4%
viability, T/C [36]: 46.5%

CC1COCCN1c1cc(C2(O)CC3CCC(C2)O3)c2cnn(-c3ccn[nH]3)c2n1 (stereo unspecified) + Cc1[nH]c2ccc(F)cc2c1-c1nc2c3cccnc3c3ncccc3c2[nH]1
IC50 (second compound 0.0316 µM): 0.144 µM
IC50 (second compound 0.1 µM): 0.095 µM
IC50 (second compound 0.316 µM): < 0.0316 µM
IC50 (second compound 1 µM): < 0.0316 µM
IC50 (second compound 3.16 µM): < 0.0316 µM
IC50 (second compound 10 µM): < 0.0316 µM
viability, T/C [1]: 68%
viability, T/C [2]: 48%
viability, T/C [3]: 39%
viability, T/C [4]: 40.7%
viability, T/C [5]: 28%
viability, T/C [6]: 14%
viability, T/C [7]: 61.3%
viability, T/C [8]: 40.1%
viability, T/C [9]: 46.8%
viability, T/C [10]: 34.9%
viability, T/C [11]: 31.5%
viability, T/C [12]: 17.4%
viability, T/C [13]: 48.8%
viability, T/C [14]: 44.1%
viability, T/C [15]: 44.2%
viability, T/C [16]: 37.6%
viability, T/C [17]: 28.3%
viability, T/C [18]: 12.6%
viability, T/C [19]: 48.9%
viability, T/C [20]: 37.1%
viability, T/C [21]: 38%
viability, T/C [22]: 27.4%
viability, T/C [23]: 19.9%
viability, T/C [24]: 12.7%
viability, T/C [25]: 36.8%
viability, T/C [26]: 38.8%
viability, T/C [27]: 30.3%
viability, T/C [28]: 26.7%
viability, T/C [29]: 18.3%
viability, T/C [30]: 8.63%
viability, T/C [31]: 41.4%
viability, T/C [32]: 37.4%
viability, T/C [33]: 31.6%
viability, T/C [34]: 29.7%
viability, T/C [35]: 25.4%
viability, T/C [36]: 12.1%

Reference: PubChem BioAssay AID2060506 (Molecular Pharmacology Branch, DTP, NCI, 2025)
